Experimental data: PubChem BioAssay AID256 (DTP/NCI, 2004)
Several values for one entry are separate records, joined by “and”; a condition that tells them apart may be missing. Equal values may be shown once. Inconclusive results and toxic doses are left out. How the source made its calls: active means survival T/C of 150% or more; inactive means T/C below 125% in these data.

System: CD2F1 mice, L1210 leukemia ip, survival T/C
Assay: NCI In Vivo Anticancer Drug Screen. Data for tumor model L1210 Leukemia (intraperitoneal) in CD2F1 (CDF1) mice
Conditions: higher = longer survival
Summary of the method: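 Ratio T/C, where T is the treated-group value and C the vehicle-dosed control value, from mice implanted with a transplantable tumor.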

[1] = endpoint: mean survival time, dose: 100.0 mg/kg/injection, schedule: Q01DX009 (ip), vehicle: saline with Tween-80
[2] = endpoint: mean survival time, dose: 200.0 mg/kg/injection, schedule: Q01DX009 (ip), vehicle: saline with Tween-80
[3] = endpoint: mean survival time, dose: 400.0 mg/kg/injection, schedule: Q01DX009 (ip), vehicle: saline with Tween-80
[4] = endpoint: mean survival time, dose: 100.0 mg/kg/injection, schedule: Q01DX009 (ip), vehicle: saline
[5] = endpoint: mean survival time, dose: 200.0 mg/kg/injection, schedule: Q01DX009 (ip), vehicle: saline
[6] = endpoint: mean survival time, dose: 100.0 mg/kg/injection, schedule: Q04DX002 (ip), vehicle: saline with Tween-80
[7] = endpoint: mean survival time, dose: 200.0 mg/kg/injection, schedule: Q04DX002 (ip), vehicle: saline with Tween-80
[8] = endpoint: mean survival time, dose: 12.5 mg/kg/injection, schedule: Q01DX009 (ip), vehicle: saline with Tween-80
[9] = endpoint: mean survival time, dose: 25.0 mg/kg/injection, schedule: Q01DX009 (ip), vehicle: saline with Tween-80
[10] = endpoint: mean survival time, dose: 100.0 mg/kg/injection, schedule: Q04DX003 (ip), vehicle: acetone
[11] = endpoint: mean survival time, dose: 200.0 mg/kg/injection, schedule: Q04DX003 (ip), vehicle: acetone
[12] = endpoint: mean survival time, dose: 400.0 mg/kg/injection, schedule: Q04DX003 (ip), vehicle: acetone
[13] = endpoint: mean survival time, dose: 50.0 mg/kg/injection, schedule: Q04DX002 (ip), vehicle: saline with Tween-80
[14] = endpoint: mean survival time, dose: 37.5 mg/kg/injection, schedule: Q01DX009 (ip), vehicle: saline
[15] = endpoint: mean survival time, dose: 75.0 mg/kg/injection, schedule: Q01DX009 (ip), vehicle: saline

Measured: T/C

CCC(=O)[O][Bi]([c]1ccccc1)[c]1ccccc1
inactive: endpoint: median survival time, dose: 3.12 mg/kg/injection, schedule: Q01DX009 (ip), vehicle: Klucel (hydroxypropylcellulose) (HPC) 108 % of control | endpoint: median survival time, dose: 6.25 mg/kg/injection, schedule: Q01DX009 (ip), vehicle: Klucel (hydroxypropylcellulose) (HPC) 108 % of control | endpoint: median survival time, dose: 12.5 mg/kg/injection, schedule: Q01DX009 (ip), vehicle: Klucel (hydroxypropylcellulose) (HPC) 103 % of control | endpoint: median survival time, dose: 25.0 mg/kg/injection, schedule: Q01DX009 (ip), vehicle: Klucel (hydroxypropylcellulose) (HPC) 112 % of control and 111 % of control

O=C(O)CCCCSc1ncnc2nc[nH]c12
inactive: [1] 90 % of control | [2] 95 % of control | [3] 102 % of control

OCC1(O)OCC(O)C(F)C1O (configuration not stated)
inactive: [4] 96 % of control | endpoint: mean survival time, dose: 100.0 mg/kg/injection, schedule: Q04DX003 (ip), vehicle: saline 88 % of control | [5] 96 % of control | endpoint: mean survival time, dose: 200.0 mg/kg/injection, schedule: Q04DX003 (ip), vehicle: saline 89 % of control | endpoint: mean survival time, dose: 400.0 mg/kg/injection, schedule: Q01DX009 (ip), vehicle: saline 94 % of control | endpoint: mean survival time, dose: 400.0 mg/kg/injection, schedule: Q04DX003 (ip), vehicle: saline 91 % of control

CN(Cc1cnc(N)c(C#N)n1)c1ccc(C(=O)NC(CCC(=O)OC(C)(C)C)C(=O)OC(C)(C)C)cc1 (configuration not stated)
inactive: [6] 91 % of control | [7] 91 % of control | endpoint: mean survival time, dose: 400.0 mg/kg/injection, schedule: Q04DX002 (ip), vehicle: saline with Tween-80 102 % of control

CC(C#N)(C#N)N=Nc1ccc(Cl)cc1Cl
inactive: [8] 96 % of control and 102 % of control | [9] 100 % of control and 104 % of control | endpoint: mean survival time, dose: 50.0 mg/kg/injection, schedule: Q01DX009 (ip), vehicle: saline with Tween-80 98 % of control and 107 % of control | [1] 101 % of control and 107 % of control | [2] 101 % of control and 111 % of control | [3] 113 % of control and 102 % of control

Cc1noc2nc(-c3ccccc3)cc(N3CCN(C)CC3)c12
inactive: endpoint: median survival time, dose: 12.5 mg/kg/injection, schedule: Q01DX005 (ip), vehicle: other 100 % of control | endpoint: median survival time, dose: 25.0 mg/kg/injection, schedule: Q01DX005 (ip), vehicle: other 103 % of control | endpoint: median survival time, dose: 50.0 mg/kg/injection, schedule: Q01DX005 (ip), vehicle: other 98 % of control | endpoint: median survival time, dose: 100.0 mg/kg/injection, schedule: Q01DX005 (ip), vehicle: other 97 % of control | endpoint: median survival time, dose: 200.0 mg/kg/injection, schedule: Q01DX005 (ip), vehicle: other 98 % of control

CCCCCCCC(=O)Nc1cccc(C)c1C
inactive: [1] 105 % of control | [2] 89 % of control | [3] 104 % of control

CC(C)(C)N=C=N[N+](C)(C)Cc1ccccc1
inactive: endpoint: mean survival time, dose: 6.25 mg/kg/injection, schedule: Q01DX009 (ip), vehicle: saline 95 % of control | endpoint: mean survival time, dose: 12.5 mg/kg/injection, schedule: Q01DX009 (ip), vehicle: saline 98 % of control | endpoint: mean survival time, dose: 25.0 mg/kg/injection, schedule: Q01DX009 (ip), vehicle: saline 111 % of control

CC(=O)OC1CCC2(C)C3CCC4(C)C(C(C)CCCC(C)C)CCC4C3C3C(=O)OC32C1 (configuration not stated)
inactive: endpoint: mean survival time, dose: 100.0 mg/kg/injection, schedule: Q01DX001 (ip), vehicle: acetone 97 % of control | [10] 98 % of control | endpoint: mean survival time, dose: 200.0 mg/kg/injection, schedule: Q01DX001 (ip), vehicle: acetone 101 % of control | [11] 93 % of control | endpoint: mean survival time, dose: 400.0 mg/kg/injection, schedule: Q01DX001 (ip), vehicle: acetone 97 % of control | [12] 90 % of control

CCN(C(=O)Nc1ccc(Cl)cc1)c1ccccc1C
inactive: [1] 97 % of control | [2] 94 % of control | [3] 90 % of control

CS(=O)(=O)Nc1ccc(C(=O)CCN2CCCCCC2)cc1
inactive: endpoint: median survival time, dose: 25.0 mg/kg/injection, schedule: Q01DX009 (ip), vehicle: saline 98 % of control | endpoint: median survival time, dose: 50.0 mg/kg/injection, schedule: Q01DX009 (ip), vehicle: saline 101 % of control | endpoint: median survival time, dose: 100.0 mg/kg/injection, schedule: Q01DX009 (ip), vehicle: saline 98 % of control

Nc1nc(N)c(-c2ccc(Cl)c(Cl)c2)c(CBr)n1
inactive: [8] 102 % of control | [9] 105 % of control

S=C(NCCCCCNC(=S)Nc1ccccc1)Nc1ccccc1
inactive: [10] 96 % of control | [11] 108 % of control

Nc1nc(Cl)c2ncn(C3CC(O)C(CO)C3)c2n1 (configuration not stated)
inactive: [4] 106 % of control | [5] 106 % of control

CC(C)COC(=N)c1ccccc1C1(O)CCCCC1
inactive: [13] 91 % of control | [6] 88 % of control | endpoint: mean survival time, dose: 100.0 mg/kg/injection, schedule: Q04DX003 (ip), vehicle: saline with Tween-80 98 % of control | [7] 100 % of control | endpoint: mean survival time, dose: 200.0 mg/kg/injection, schedule: Q04DX003 (ip), vehicle: saline with Tween-80 92 % of control

C/C(=N\Nc1nc2ccccc2s1)c1ccc2c(c1)Sc1ccccc1O2
inactive: [14] 92 % of control | [15] 95 % of control | endpoint: mean survival time, dose: 150.0 mg/kg/injection, schedule: Q01DX009 (ip), vehicle: saline 98 % of control

CC(=O)OC1CCC2(C)C(=CCC3C2CCC2(C)C(OC(=O)c4ccccc4)CCC32)C1 (configuration not stated)
inactive: [10] 104 % of control | [11] 90 % of control | [12] 86 % of control

CC1CCC(C(C)C)C(NCCO)C1 (configuration not stated)
inactive: endpoint: mean survival time, dose: 18.8 mg/kg/injection, schedule: Q01DX009 (ip), vehicle: saline 96 % of control | [14] 97 % of control | [15] 100 % of control

Brc1c2ccccc2c(Br)c2ccccc12
inactive: endpoint: mean survival time, dose: 100.0 mg/kg/injection, schedule: Q04DX002 (ip), vehicle: Klucel (hydroxypropylcellulose) (HPC) 86 % of control | endpoint: mean survival time, dose: 200.0 mg/kg/injection, schedule: Q04DX002 (ip), vehicle: Klucel (hydroxypropylcellulose) (HPC) 114 % of control | endpoint: mean survival time, dose: 400.0 mg/kg/injection, schedule: Q04DX002 (ip), vehicle: Klucel (hydroxypropylcellulose) (HPC) 86 % of control

CC(C)(C)c1cc(N)cc(C(C)(C)C)c1O
inactive: [13] 91 % of control | [6] 98 % of control | [7] 98 % of control

[I][Pt+2][I].[NH-]CC1CCCC[N-]1 (configuration not stated)
inactive: endpoint: mean survival time, dose: 3.13 mg/kg/injection, schedule: Q04DX003 (ip), vehicle: distilled water + Tween-80 98 % of control | endpoint: mean survival time, dose: 6.25 mg/kg/injection, schedule: Q04DX003 (ip), vehicle: distilled water + Tween-80 95 % of control | endpoint: mean survival time, dose: 12.5 mg/kg/injection, schedule: Q04DX003 (ip), vehicle: distilled water + Tween-80 95 % of control | endpoint: mean survival time, dose: 25.0 mg/kg/injection, schedule: Q04DX003 (ip), vehicle: distilled water + Tween-80 104 % of control | endpoint: mean survival time, dose: 50.0 mg/kg/injection, schedule: Q04DX003 (ip), vehicle: distilled water + Tween-80 98 % of control

O=C1/C(=N/Nc2ccccc2)c2cccc3cccc1c23
inactive: endpoint: mean survival time, dose: 100.0 mg/kg/injection, schedule: Q01DX001 (ip), vehicle: saline with Tween-80 97 % of control | endpoint: mean survival time, dose: 200.0 mg/kg/injection, schedule: Q01DX001 (ip), vehicle: saline with Tween-80 100 % of control | endpoint: mean survival time, dose: 400.0 mg/kg/injection, schedule: Q01DX001 (ip), vehicle: saline with Tween-80 106 % of control

CNCCc1ccc(O)c(O)c1
inactive: endpoint: mean survival time, dose: 300.0 mg/kg/injection, schedule: Q01DX001 (ip), vehicle: saline 100 % of control

Oc1ccccc1/C=N/NC(=S)NC1CC2C=CC1C2 (configuration not stated)
inactive: endpoint: mean survival time, dose: 12.5 mg/kg/injection, schedule: Q01DX009 (ip), vehicle: olive oil, sesame oil, peanut oil 98 % of control | endpoint: mean survival time, dose: 25.0 mg/kg/injection, schedule: Q01DX009 (ip), vehicle: olive oil, sesame oil, peanut oil 97 % of control | endpoint: mean survival time, dose: 50.0 mg/kg/injection, schedule: Q01DX009 (ip), vehicle: olive oil, sesame oil, peanut oil 98 % of control | endpoint: mean survival time, dose: 100.0 mg/kg/injection, schedule: Q01DX009 (ip), vehicle: olive oil, sesame oil, peanut oil 94 % of control | endpoint: mean survival time, dose: 200.0 mg/kg/injection, schedule: Q01DX009 (ip), vehicle: olive oil, sesame oil, peanut oil 98 % of control | endpoint: mean survival time, dose: 400.0 mg/kg/injection, schedule: Q01DX009 (ip), vehicle: olive oil, sesame oil, peanut oil 100 % of control

O=C(O)C1CC(Br)C(Br)CC1C(=O)O (configuration not stated)
inactive: [1] 95 % of control | [2] 100 % of control | [3] 91 % of control

CCOC(=O)CCCC/C(C)=N\N=C(C(C)C)C(C)C
inactive: endpoint: mean survival time, dose: 75.0 mg/kg/injection, schedule: Q01DX001 (ip), vehicle: other 103 % of control | endpoint: mean survival time, dose: 150.0 mg/kg/injection, schedule: Q01DX001 (ip), vehicle: other 97 % of control | endpoint: mean survival time, dose: 300.0 mg/kg/injection, schedule: Q01DX001 (ip), vehicle: other 89 % of control
